Calls of active or inactive are those of the source.
Columns and labels:
[1] = target: T1, Low molecular weight phosphotyrosine protein phosphatase (Homo sapiens, UniProt P24666); type: functional; conditions: read-out: IC50_Mean;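 also: Dose-response confirmation assay measuring inhibition of LMPTP enzyme activity by fluorescence intensity read-out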
T1 sequence (P24666 whole entry): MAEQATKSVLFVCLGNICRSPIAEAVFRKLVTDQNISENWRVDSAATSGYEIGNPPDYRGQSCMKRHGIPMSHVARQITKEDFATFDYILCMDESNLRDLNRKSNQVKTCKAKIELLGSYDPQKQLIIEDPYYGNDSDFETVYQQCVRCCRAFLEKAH

[2] = target: T1, Low molecular weight phosphotyrosine protein phosphatase; assay: LMPTP phosphatase inhibitors, dose response, biochemical, OMFP substrate, fluorescence intensity, set 2 (AID 743307); type: functional
[3] = target: T1, Low molecular weight phosphotyrosine protein phosphatase; assay: LMPTP phosphatase inhibitors, colorimetric pNPP readout, dose response, orthogonal assay, biochemical, absorbance, pNPP substrate, LMPTP-A isoform, set 2 (AID 743308); type: functional
[4] = inhibitors of Vif binding to APOBEC3G peptide, primary screen, biochemical, TR-FRET, GST-Vif 1-94, biotin-A3G peptide, dose response retest (AID 1117319); type: functional;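 also: TR-FRET signal of purified GST-Vif binding a biotinylated A3G peptide; inhibitors lower the FRET signal by blocking Vif and A3G binding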
[5] = target: T2, Methionyl-tRNA synthetase, putative (Trypanosoma brucei brucei, UniProt Q38C91); type: functional, Trypanosoma brucei brucei strain 927/4 GUTat10.1
T2 sequence (Q38C91 whole entry): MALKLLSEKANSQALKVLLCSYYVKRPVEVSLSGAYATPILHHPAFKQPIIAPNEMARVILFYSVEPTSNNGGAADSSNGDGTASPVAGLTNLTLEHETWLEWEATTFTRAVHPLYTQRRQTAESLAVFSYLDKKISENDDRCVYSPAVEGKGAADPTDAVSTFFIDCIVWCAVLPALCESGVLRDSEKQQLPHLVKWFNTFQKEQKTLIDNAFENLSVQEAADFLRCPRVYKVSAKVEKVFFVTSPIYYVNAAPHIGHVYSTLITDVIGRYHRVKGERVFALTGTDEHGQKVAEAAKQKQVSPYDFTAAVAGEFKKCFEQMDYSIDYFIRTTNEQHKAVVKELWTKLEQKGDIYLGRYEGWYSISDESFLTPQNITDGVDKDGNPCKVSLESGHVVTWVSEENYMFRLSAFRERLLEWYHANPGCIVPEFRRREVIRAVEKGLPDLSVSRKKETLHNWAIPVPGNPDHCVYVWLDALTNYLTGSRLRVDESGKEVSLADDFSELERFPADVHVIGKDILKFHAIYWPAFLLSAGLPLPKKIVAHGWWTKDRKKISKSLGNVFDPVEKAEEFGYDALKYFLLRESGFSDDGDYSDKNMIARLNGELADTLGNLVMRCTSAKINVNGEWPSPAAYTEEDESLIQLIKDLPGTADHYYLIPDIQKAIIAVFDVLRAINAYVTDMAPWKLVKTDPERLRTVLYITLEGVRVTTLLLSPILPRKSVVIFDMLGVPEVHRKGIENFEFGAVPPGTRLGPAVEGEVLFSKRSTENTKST

[6] = Counterscreen for inhibitors of Trypanosoma brucei methionyl tRNA synthetase (MetRS): Luminescence-based cell-based high throughput dose response assay to identify compounds that are cytotoxic to Jurkat human T lymphocyte cells.; type: functional
[7] = target: T2, Methionyl-tRNA synthetase, putative; type: functional, Trypanosoma brucei brucei strain 927/4 GUTat10.1; remark: listed apart in the source
[8] = Late stage counterscreen for inhibitors of Trypanosoma brucei methionyl tRNA synthetase (MetRS): Luminescence-based cell-based high throughput dose response assay to identify compounds that are cytotoxic to Jurkat human T lymphocyte cells.; type: functional
[9] = HIV Env cell-cell fusion inhibitors, dose response, HIV entry, plate reader, dry powder (AID 687023); type: functional, cell-based
[10] = luciferase signal loss, tTA control fusion, HeLa F-luc tTA cells, dry powder, counter-screen for HIV Env fusion inhibitor project, dose response (AID 687021); type: functional, cell-based
[11] = CEM21 cell cytotoxicity, dose response, cytotoxicity control, plate reader, dry powder (AID 687026); type: functional, cell-based
[12] = target: Glutathione-S-transferase (Schistosoma japonicum, UniProt Q26513); assay: biotin-GST/anti-GST TR-FRET signal inhibitors, dose response, artefact control for Vif-APOBEC3G degradation inhibitor project, biochemical (AID 1117362); type: functional
[13] = miR-122 activators in hepatoma reporter cells, dose response, cell-based, Huh7 psiCHECK-miR122, Renilla luciferase, cherry-picked (AID 651956); type: functional;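 also: huh7 hepatoma cells stably carrying a psiCHECK-2 miR-122 sensor plasmid; renilla luciferase signal reporting endogenous miR-122 activity after 48 h compound exposure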
[14] = inhibitors of PGC1a acetylation in cells, dose response, cell-based, cherry-picked samples (AID 720514); type: functional;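 also: potency may reflect raised or lowered acetylation signal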
[15] = HEK293T cytotoxicity, dose response, cytotoxicity control for miR-122 modulator project, cell-based, inhibitor set, cherry-pick, set 2 (AID 720697); type: functional
[16] = HEK293T cytotoxicity, dose response, cytotoxicity control for miR-122 modulator project, cell-based, activator set, cherry-pick (AID 720690); type: functional;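 also: HEK293T human cells scored for general mammalian cytotoxicity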
[17] = inhibitors of non-replicating M. tuberculosis, dose response, luciferase, dry powder (AID 651619); type: functional; conditions: Mycobacterium tuberculosis
[18] = inhibitors of non-replicating M. tuberculosis, dose response, luciferase, dry powder (AID 651620); type: functional; conditions: Mycobacterium tuberculosis
[19] = Late-stage results from the probe development effort to identify antagonists of arginine vasopressin receptor 1a (AVPR1a): fluorescence-based cell-based dose response AVPR1a inhibition assay.; type: functional
Vasopressin V1b receptor = Vasopressin V1b receptor (Homo sapiens, UniProt P47901); assay: Late-stage results from the probe development effort to identify antagonists of arginine vasopressin receptor 1a (AVPR1a): fluorescence-based cell-based dose response AVPR1b inhibition counterscreen assay.; type: functional
Vasopressin V2 receptor = Vasopressin V2 receptor (Homo sapiens, UniProt P30518); assay: Late-stage results from the probe development effort to identify antagonists of arginine vasopressin receptor 1a (AVPR1a): fluorescence-based cell-based dose response AVPR2 inhibition counterscreen assay.; type: functional
[20] = Late-stage results from the probe development effort to identify antagonists of arginine vasopressin receptor 1a (AVPR1a): fluorescence-based cell-based dose response OXTR inhibition counterscreen assay.; type: functional
[21] = NIH-3T3 fibroblast cytotoxicity, dose response, cytotoxicity control, cell-based, fluorescence, Alamar Blue, secondary assay (AID 2327); type: functional;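 also: NIH-3T3 mouse fibroblasts cultured with fluconazole at 8 µg/mL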
Leucine aminopeptidase = target: T3, Leucine aminopeptidase (Plasmodium falciparum 3D7, UniProt Q8IL11); assay: P. falciparum M17LAP inhibitors, primary screen, biochemical, fluorogenic H-Leu-NHMec substrate, 1536-well (AID 1619); type: functional
T3 sequence (Q8IL11 whole entry): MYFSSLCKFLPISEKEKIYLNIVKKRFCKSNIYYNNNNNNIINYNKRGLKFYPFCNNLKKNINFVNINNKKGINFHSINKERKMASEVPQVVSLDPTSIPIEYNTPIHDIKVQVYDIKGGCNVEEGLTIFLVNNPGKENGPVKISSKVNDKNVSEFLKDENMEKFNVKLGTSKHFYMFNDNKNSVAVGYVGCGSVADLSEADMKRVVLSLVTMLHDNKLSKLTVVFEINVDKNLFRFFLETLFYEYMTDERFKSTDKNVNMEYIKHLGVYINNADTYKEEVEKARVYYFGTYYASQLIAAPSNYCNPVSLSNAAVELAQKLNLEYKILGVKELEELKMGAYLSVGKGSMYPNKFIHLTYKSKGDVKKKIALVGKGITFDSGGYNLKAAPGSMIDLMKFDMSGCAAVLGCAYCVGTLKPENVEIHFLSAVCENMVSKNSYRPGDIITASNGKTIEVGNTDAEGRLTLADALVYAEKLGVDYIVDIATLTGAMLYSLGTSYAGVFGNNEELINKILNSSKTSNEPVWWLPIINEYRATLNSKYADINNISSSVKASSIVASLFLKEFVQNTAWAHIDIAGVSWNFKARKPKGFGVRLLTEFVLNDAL

[22] = C. albicans growth with fluconazole, confirmation, fluorescence, retest (AID 2467); type: functional, cell-based
[23] = target: T4, Mannose-6-phosphate isomerase (Homo sapiens, UniProt P34949); assay: human PMI inhibitors, high substrate, primary screen, biochemical, fluorescence intensity, high mannose 6-phosphate (AID 1220)
T4 sequence (P34949 whole entry): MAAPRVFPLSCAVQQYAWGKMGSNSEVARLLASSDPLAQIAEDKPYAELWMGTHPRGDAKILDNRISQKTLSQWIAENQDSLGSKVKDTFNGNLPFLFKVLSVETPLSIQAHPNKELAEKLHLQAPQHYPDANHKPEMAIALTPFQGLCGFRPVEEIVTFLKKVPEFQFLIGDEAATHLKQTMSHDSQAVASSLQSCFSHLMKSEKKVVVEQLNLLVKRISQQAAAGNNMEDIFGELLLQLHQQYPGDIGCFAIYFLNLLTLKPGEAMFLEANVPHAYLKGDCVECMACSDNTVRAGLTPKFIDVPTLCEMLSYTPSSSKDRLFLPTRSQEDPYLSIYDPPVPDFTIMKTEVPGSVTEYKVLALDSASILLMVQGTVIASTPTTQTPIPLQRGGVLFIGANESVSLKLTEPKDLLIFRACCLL

[24] = target: Glucose-6-phosphate 1-dehydrogenase (Homo sapiens, UniProt P11413); assay: human G6PD enzyme inhibitors, dose response, selectivity assay for P. falciparum G6PD inhibitor project, biochemical, fluorescence (AID 504792); type: functional
Vero = Vero cell cytotoxicity, cytotoxicity control for flavivirus capping enzyme inhibitors (AID 588742); type: functional; conditions: Chlorocebus sabaeus
Genome polyprotein = Genome polyprotein (dengue virus type 2, UniProt P29990); assay: Dengue-2 NS5 methyltransferase inhibitors, primary screen, biochemical, confirmation dose response (AID 588689); type: functional
Protein Tat = target: T5, Protein Tat (Human immunodeficiency virus type 1 group M subtype B (isolate HXB2)(HIV-1), UniProt P04608); type: functional;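 also: tat binding to TAR RNA read out by fluorescence polarization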
T5 sequence (P04608 whole entry): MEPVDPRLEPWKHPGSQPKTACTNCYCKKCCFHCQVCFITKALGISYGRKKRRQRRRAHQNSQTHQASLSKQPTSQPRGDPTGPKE

[25] = THP-1 cell cytotoxicity, dose response, cytotoxicity control for Vif-APOBEC3G degradation inhibitor project, THP-1 cells (AID 1117359); type: functional; conditions: Human immunodeficiency virus 1, THP-1
[26] = target: RNA-editing ligase 1, mitochondrial (Trypanosoma brucei brucei, UniProt P86926); assay: TbREL1 ligase inhibitors, dose response, biochemical, fluorescence, Trypanosoma brucei (AID 1117295); type: functional
[27] = P. falciparum Dd2 growth inhibitors, dose response, SYBR Green, dry powder samples, set 9 (AID 1159568); type: functional, cell-based
[28] = target: Metabotropic glutamate receptor 7 (Homo sapiens, UniProt Q14831); assay: mGlu7 positive allosteric modulators, dose response, cell-based, calcium mobilization, Galpha15 (AID 743384); type: functional
[29] = A375 melanoma cell viability loss, dose response, counter-screen for MITF inhibitor project, CellTiter-Glo luminescence, dry powder, set 4 (AID 624364); type: functional, cell-based; conditions: A-375;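 also: A375 melanoma cells are MITF independent so this is a counter screen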
[30] = A375 melanoma cell cytotoxicity, dose response, counter-screen for MITF inhibitor project, CellTiter-Glo luminescence, dry powder, set 2 (AID 624489); type: functional, cell-based; conditions: A-375;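 also: actives are compounds lowering A375 viability meaning general cytotoxicity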

Vasopressin V2 receptor, sequence (P30518 whole entry): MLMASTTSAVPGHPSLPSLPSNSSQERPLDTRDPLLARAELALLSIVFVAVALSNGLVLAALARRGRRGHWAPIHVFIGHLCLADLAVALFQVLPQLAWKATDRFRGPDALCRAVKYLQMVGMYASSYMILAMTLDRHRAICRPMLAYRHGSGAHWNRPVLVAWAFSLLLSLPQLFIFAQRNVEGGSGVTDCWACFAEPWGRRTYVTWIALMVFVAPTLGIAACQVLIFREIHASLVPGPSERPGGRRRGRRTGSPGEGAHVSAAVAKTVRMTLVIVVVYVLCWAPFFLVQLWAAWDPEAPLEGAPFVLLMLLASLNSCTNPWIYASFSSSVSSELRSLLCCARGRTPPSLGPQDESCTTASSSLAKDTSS
Metabotropic glutamate receptor 7, sequence (Q14831 whole entry): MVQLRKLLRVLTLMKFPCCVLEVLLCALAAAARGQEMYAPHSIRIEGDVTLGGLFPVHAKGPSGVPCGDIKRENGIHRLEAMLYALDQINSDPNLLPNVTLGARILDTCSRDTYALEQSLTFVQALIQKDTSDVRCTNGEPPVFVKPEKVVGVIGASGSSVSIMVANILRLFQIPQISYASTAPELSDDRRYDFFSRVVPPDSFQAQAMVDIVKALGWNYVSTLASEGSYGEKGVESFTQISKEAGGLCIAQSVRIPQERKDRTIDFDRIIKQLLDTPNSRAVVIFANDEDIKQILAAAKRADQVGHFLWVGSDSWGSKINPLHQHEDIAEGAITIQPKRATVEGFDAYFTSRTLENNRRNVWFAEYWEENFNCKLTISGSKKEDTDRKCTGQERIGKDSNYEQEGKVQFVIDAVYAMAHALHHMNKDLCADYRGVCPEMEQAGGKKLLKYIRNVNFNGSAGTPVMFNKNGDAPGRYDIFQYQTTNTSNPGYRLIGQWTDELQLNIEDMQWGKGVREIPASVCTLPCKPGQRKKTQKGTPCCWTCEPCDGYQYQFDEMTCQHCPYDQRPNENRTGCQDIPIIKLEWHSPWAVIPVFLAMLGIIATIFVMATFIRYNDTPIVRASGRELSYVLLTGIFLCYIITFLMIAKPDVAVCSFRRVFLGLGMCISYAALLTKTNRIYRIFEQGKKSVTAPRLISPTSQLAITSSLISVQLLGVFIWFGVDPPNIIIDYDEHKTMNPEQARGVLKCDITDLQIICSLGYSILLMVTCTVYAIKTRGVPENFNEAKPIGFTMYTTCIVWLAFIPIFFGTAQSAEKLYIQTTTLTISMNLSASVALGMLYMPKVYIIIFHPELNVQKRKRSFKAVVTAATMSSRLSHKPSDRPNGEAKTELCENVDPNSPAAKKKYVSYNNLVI
Genome polyprotein, sequence (P29990 2492-3391 limits assumed): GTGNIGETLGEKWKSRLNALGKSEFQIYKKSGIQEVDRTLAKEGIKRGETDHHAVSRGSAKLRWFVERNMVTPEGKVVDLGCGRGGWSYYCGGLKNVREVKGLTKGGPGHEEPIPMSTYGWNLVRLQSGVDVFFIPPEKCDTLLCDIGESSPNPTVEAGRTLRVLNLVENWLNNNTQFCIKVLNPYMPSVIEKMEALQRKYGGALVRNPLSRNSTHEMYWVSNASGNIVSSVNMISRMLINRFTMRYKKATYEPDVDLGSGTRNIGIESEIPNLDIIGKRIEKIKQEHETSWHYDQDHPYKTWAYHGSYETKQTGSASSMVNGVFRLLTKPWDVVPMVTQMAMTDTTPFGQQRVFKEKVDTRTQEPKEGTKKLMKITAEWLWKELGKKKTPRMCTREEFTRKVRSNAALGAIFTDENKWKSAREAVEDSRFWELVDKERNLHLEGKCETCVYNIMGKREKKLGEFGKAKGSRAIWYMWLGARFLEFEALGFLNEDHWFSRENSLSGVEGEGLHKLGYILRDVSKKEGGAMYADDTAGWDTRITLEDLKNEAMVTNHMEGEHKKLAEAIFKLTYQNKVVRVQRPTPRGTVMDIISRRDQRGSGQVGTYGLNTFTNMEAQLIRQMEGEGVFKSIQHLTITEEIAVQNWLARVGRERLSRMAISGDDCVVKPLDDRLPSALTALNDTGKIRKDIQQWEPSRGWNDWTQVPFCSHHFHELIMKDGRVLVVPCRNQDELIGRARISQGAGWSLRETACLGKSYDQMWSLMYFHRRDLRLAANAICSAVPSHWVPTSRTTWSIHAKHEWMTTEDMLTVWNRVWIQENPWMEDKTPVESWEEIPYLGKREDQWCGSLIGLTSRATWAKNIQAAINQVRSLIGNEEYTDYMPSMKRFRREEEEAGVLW
Glutathione-S-transferase, sequence (Q26513 whole entry): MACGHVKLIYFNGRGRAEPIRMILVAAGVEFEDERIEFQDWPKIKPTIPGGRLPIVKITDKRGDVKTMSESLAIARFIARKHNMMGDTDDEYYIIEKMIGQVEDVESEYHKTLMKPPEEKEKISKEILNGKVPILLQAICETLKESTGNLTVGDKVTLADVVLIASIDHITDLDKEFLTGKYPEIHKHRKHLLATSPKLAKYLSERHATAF
Glucose-6-phosphate 1-dehydrogenase, sequence (P11413 whole entry): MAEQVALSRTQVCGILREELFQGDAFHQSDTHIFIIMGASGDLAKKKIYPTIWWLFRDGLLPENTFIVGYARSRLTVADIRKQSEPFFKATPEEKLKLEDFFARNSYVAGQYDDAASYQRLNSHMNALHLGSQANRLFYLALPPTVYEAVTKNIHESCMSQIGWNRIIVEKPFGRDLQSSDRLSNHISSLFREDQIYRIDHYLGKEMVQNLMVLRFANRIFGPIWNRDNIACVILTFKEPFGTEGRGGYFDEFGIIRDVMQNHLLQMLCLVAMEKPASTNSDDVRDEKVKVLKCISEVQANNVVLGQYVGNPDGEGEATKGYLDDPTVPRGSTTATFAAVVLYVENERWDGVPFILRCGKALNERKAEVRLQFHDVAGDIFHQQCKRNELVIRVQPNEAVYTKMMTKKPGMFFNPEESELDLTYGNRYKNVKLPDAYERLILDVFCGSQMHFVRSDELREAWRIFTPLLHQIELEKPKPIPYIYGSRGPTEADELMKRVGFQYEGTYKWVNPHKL
RNA-editing ligase 1, mitochondrial, sequence (P86926 whole entry): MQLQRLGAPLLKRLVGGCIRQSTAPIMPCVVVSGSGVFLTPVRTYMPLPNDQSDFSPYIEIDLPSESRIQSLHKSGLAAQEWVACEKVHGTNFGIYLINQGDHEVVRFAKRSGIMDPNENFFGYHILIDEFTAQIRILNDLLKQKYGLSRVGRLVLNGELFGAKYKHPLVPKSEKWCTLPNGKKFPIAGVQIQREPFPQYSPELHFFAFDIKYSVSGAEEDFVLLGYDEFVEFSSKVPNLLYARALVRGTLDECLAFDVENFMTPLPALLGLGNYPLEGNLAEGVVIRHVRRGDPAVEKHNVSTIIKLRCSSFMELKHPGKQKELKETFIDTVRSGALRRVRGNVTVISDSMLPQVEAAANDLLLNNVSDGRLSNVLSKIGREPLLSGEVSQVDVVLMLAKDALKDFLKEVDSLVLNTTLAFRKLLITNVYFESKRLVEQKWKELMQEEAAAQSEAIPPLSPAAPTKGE
Vasopressin V1b receptor, sequence (P47901 whole entry): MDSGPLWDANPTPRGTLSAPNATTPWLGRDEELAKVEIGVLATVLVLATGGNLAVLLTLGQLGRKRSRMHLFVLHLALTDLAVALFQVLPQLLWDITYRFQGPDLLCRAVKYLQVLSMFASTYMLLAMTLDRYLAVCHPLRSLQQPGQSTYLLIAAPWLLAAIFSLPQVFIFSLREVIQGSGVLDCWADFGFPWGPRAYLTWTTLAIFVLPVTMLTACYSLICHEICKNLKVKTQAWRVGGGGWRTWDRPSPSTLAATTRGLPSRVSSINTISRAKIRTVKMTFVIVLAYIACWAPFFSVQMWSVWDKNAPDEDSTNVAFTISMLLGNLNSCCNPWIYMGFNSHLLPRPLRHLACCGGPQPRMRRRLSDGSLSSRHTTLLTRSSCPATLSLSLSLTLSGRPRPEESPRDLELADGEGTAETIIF

c1ccc(-c2nc(NC3CCCC3)c3ccccc3n2)cc1
IC50 [1]: 10 µM (active) | IC50 [2]: 21.1 µM (inactive) | IC50 [3]: > 80 µM (inactive)

Cc1ccc(C(=O)N2CCN(c3ccccc3)CC2)cc1C
IC50 [4]: > 100 µM (active)

O=C1CC(SCc2nc3ccccc3[nH]2)C(=O)N1c1cccc(Cl)c1 (stereo unspecified)
IC50 [5]: 3.81 µM (active) | IC50 [6]: 65 µM (inactive) | IC50 [7]: 2.6 µM (active) | IC50 [8]: > 83.3 µM (inactive)

COC(=O)COc1ccc(S(=O)(=O)NCc2ccncc2)cc1
AC50 [9]: 20.7 µM (active) | AC50 [10]: > 70 µM (inactive) | AC50 [11]: > 70 µM (inactive)

CCOC(=O)C1CCCC12Nc1cccc3cccc(c13)N2 (stereo unspecified)
IC50 [12]: > 100 µM (active)

COc1ccc(C#Cc2ccc([C@@H]3[C@H](CO)N4CCCCN(C(=O)Nc5ccccc5)C[C@@H]34)cc2)cc1
AC50 [13]: 7.42 µM (active) | AC50 [14]: 9.62 µM (active) | AC50 [15]: 0.405 µM (active) | AC50 [16]: 7.77 µM (active)

c1ccc(-c2nnc(SCC3CC3)o2)cc1
IC90 [17]: 2 µM (active) | IC90 [18]: 2 µM (active)

COc1ccccc1N(CC1CC1)C(=O)N1CCN(c2ccccc2C)CC1
IC50 [19]: 0.292 µM (active) | IC50 (Vasopressin V1b receptor): 17.9 µM (inactive) | IC50 (Vasopressin V2 receptor): 12.3 µM (inactive) | IC50 [20]: 12.3 µM (inactive)

CC/N=c1\scc(C)n1/N=C/c1ccc(O)c(O)c1O
EC50 [21]: > 150 µM (inactive) | IC50 (Leucine aminopeptidase): 82.3 µM (active) | EC50 [22]: > 38 µM (not active) | IC50 [23]: 12 µM (active) | IC50 [24]: 57.4 µM (inactive) | CC50 (Vero): > 40 µM (active) | IC50 (Genome polyprotein): 21.4 µM (active) | IC50 (Protein Tat): 54.4 µM (inconclusive) | CC50 [25]: 29.6 µM (active) | IC50 [26]: > 96.6 µM (inactive)

C[C@@H]1CN([C@H](C)CO)C(=O)c2cc(N(C)C)ccc2O[C@@H](C)CCCCO[C@@H]1CN(C)S(=O)(=O)c1ccc(F)cc1
AC50 [27]: 12.1 µM (active)

Cc1ccc(CSCC(=O)c2cc(C)n(-c3ccc(OC(F)F)cc3)c2C)cc1
EC50 [28]: 3.16 µM (active)

COc1ccc(C2=C(NC(=O)c3cccc(Cl)c3)C(=O)c3ccccc3C2=O)cc1
AC50 [29]: 24.1 µM (active) | AC50 [30]: 18.2 µM (active)

Source: ChEMBL document CHEMBL1201862, “PubChem BioAssay data set” (2004)
